# Patent publication EP0741749B1, “MERCURY BINDING POLYPEPTIDES AND N[…] THEREFOR” (priority 1994, dated 1995)
# Test system: binding of antibody secreted by hybridoma designated as 1F10 to immobilized glutathione-mercuric ion
# Test: Competitive inhibition ELISA: inhibition of antibody binding by metal ions
# Details: culture fluid of 1F10; at the highest concentration (final range 10^-1 M to 10^-6 M); 100000 µM
# Method: Various methods were used to confirm that the antibodies secreted by hybridomas 4A10 and 1F10 were specific to mercuric ions. If the antibody being secreted by these hybridomas were specific, it should be possible to inhibit binding of the antibody to glutathione-mercuric ions by incubation in the presence of various concentrations of mercuric chloride. This competitive inhibition assay was conducted with antibody-containing culture fluids from the parental hybridomas 4A10 and 1F10.
# Metal ions at the indicated concentrations were incubated with culture fluid from the monoclonal antibody in an enzyme-linked immunosorbent assay ("ELISA") plate. The absorbance at 405 nm was determined for each sample, and the percent inhibition of each metal ion concentration was determined by the following formula: Percent inhibition=(A405 of inhibitor - A405 of neg. control)/(A405 of pos. control - A405 of neg. control) [formula]
# Various other metals were assayed for inhibition of binding of the monoclonal antibodies to mercuric ion. […] The absorbance at 405 nm was determined for each sample, and the percent inhibition of each metal ion concentration was determined by the same formula used for Figure 1. […]
# The negative control measured the binding of a dinitrophenol specific antibody to the antigen mentioned above in the presence of the corresponding metal ions. […]
structure (smiles),measurement,value
[Cl-].[Cl-].[Mg+2] [magnesium chloride],Percent inhibition,~50%
